Assay results taken from patent US4251439A, “Pharmacologically active peptides” (Eli Lilly and Company, priority 1979, dated 1981).
Where a SMILES comes first, the peptide text is derived from it. Where no end group is shown, it is not given here. [ ]: non-standard residue; d: D form. Phg(4-OMe) = COc1ccc([C@H](N)C(=O)O)cc1; dPhg = N[C@@H](C(=O)O)c1ccccc1; Phg = N[C@H](C(=O)O)c1ccccc1

Tests used:
mouse = mouse hot plate test (analgesic activity); type: in vivo; conditions: subcutaneous, hot plate 52° C., 15 minutes after administration, latency until jump
Method: In this test, a mouse is placed inside an upright acrylic cylinder comprising, as its base, a hot plate surface which is maintained at 52° C. The mouse is given, orally or by subcutaneous injection, a predetermined amount of test compound dissolved or suspended in a suitable carrier, and, 15 minutes after administration of the test compound, the mouse is placed on the hot plate surface. The latency in seconds until the mouse jumps from the hot plate surface is measured. […] This must occur in a dose range which produces no motor incoordination or incapacitation. The following Table records the ED50 results obtained from this test.

mice = conditions: administration intracerebroventricularly; cited from earlier work
[1] = administered parenterally; cited from earlier work
[2] = in vivo; cited from earlier work

Row | Compound | Analgesic Activity, Hot Plate Test ED50 (mouse) [mg/kg] | further results
1 | COc1ccc([C@H](NC(=O)[C@H](Cc2ccccc2)NC(=O)CNC(=O)[C@@H](C)NC(=O)[C@@H](N)Cc2ccc(O)cc2)C(N)=O)cc1 [Example 1, L-Tyrosyl-D-alanyl-glycyl-L-phenylalanyl-L-p-methoxyphenylglycinamide] (H-Y[dA]GF[Phg(4-OMe)]-NH2) | 3.14 | –
2 | C[C@@H](NC(=O)[C@@H](N)Cc1ccc(O)cc1)C(=O)NCC(=O)N[C@@H](Cc1ccccc1)C(=O)N[C@H](C(N)=O)c1ccccc1 [Example 2, L-Tyrosyl-D-alanyl-glycyl-L-phenylalanyl-L-phenylglycinamide] (H-Y[dA]GF[Phg]-NH2) | 0.40 | –
3 | C[C@@H](NC(=O)[C@@H](N)Cc1ccc(O)cc1)C(=O)NCC(=O)N[C@@H](Cc1ccccc1)C(=O)N[C@@H](C(N)=O)c1ccccc1 [Example 3, L-Tyrosyl-D-alanyl-glycyl-L-phenylalanyl-D-phenylglycinamide] (H-Y[dA]GF[dPhg]-NH2) | 0.23 | –
4 | C[C@@H](NC(=O)[C@@H](N)Cc1ccc(O)cc1)C(=O)NCC(=O)N(C)[C@@H](Cc1ccccc1)C(=O)N[C@H](C(N)=O)c1ccccc1 [Example 6, L-Tyrosyl-D-alanyl-glycyl-L-(N-methyl)phenylalanyl-L-phenylglycinamide] | 0.19 | –
5 | C[C@@H](NC(=O)[C@@H](N)Cc1ccc(O)cc1)C(=O)NCC(=O)N(C)[C@@H](Cc1ccccc1)C(=O)N[C@@H](C(N)=O)c1ccccc1 [Example 7, L-Tyrosyl-D-alanyl-glycyl-L-(N-methyl)phenylalanyl-D-phenylglycinamide] | 3.82 | –
6 | CCN(C(=O)CNC(=O)[C@@H](C)NC(=O)[C@@H](N)Cc1ccc(O)cc1)[C@@H](Cc1ccccc1)C(=O)N[C@H](C(N)=O)c1ccccc1 [Example 8, L-Tyrosyl-D-alanyl-glycyl-L-(N-ethyl)phenylalanyl-L-phenylglycinamide] | 0.064 | –
7 | CCCN(C(=O)CNC(=O)[C@@H](C)NC(=O)[C@@H](N)Cc1ccc(O)cc1)[C@@H](Cc1ccccc1)C(=O)N[C@H](C(N)=O)c1ccccc1 [Example 9, L-Tyrosyl-D-alanyl-glycyl-L-(N-n-propyl)phenylalanyl-L-phenylglycinamide] | 0.15 | –
8 | H-Tyr-Gly-Gly-Phe-Met-OH [methionine enkephalin] | – | analgesic activity (mice): exhibit analgesic activity; useful analgesic activity [1]: practically devoid of any useful analgesic activity
9 | L-Tyrosyl-D-alanyl-glycyl-L-phenylalanyl-D-p-hydroxyphenylglycinamide [Example 4] | 1.0 | –
10 | L-Tyrosyl-D-alanyl-glycyl-L-phenylalanyl-D-phenylglycin-N-methylamide [Example 5] | 0.74 | –
11 | Y[dA]GF[dF]-OH | – | analgesic potential [2]: limited analgesic potential
